Data on 10 compounds can be found in patent EP4141110A1 (priority 2020, dated 2021).

One data set concerns mice. The note with it: mouse, in vivo.
The subject of another data set is PC3 line. The class given is cell-based.

Several values for one entry are separate records, joined by “and”; a condition that tells them apart may be missing. Equal values may be shown once.

Consider `O=C([O-])[O-].O=C([O-])[O-].O=C([O-])[O-].[Tl+3].[Tl+3]` [Tl2(CO3)3], for which, in the data set with mice, the “DCL” value was 19 µg/dL, the “Therapeutic ratio × 10^-7” value is 14.6 × 10^-7 and the dCL/ daggl was found to be 0.5. Further, the “% of PC3 death in the mixture with iRGD + 6APA ligand” value (from here on “% of PC3 death in the mixture”) with PC3 line was 95% and 92% and 89%. In addition, in the data set with cell cultures, the “daggl” value turned out to be 9 pg/dL.

Regarding `[Na+].[O]=[V](=[O])[O-]` [NaVO3], in the data set on mice, the “DCL” value is 2.0 µg/dL, the “Therapeutic ratio × 10^-7” value is reported as 67 × 10^-7 and the dCL/ daggl was 1. Moreover, the “% of PC3 death in the mixture” value in the data set with PC3 line was 70% and 55% and 40%. Further, the “daggl” value in the data set with cell cultures came out at 1 pg/dL.

In the case of `O=[N+]([O-])[O-].O=[N+]([O-])[O-].[Zn+2]` [Zn(NO3)2], the “Therapeutic ratio × 10^-7” value in the data set on mice was 50 × 10^-7.

Turning to `[Cl][Pt-2]([Cl])([Cl])([Cl])([Cl])[Cl].[NH4+].[NH4+]` [(NH4)2[PtCl6], ammonium hexachloroplatinate (IV)], in the data set on mice, the “Therapeutic ratio × 10^-7” value was 5 × 10^-7. Besides, the “% of PC3 death in the mixture” value with PC3 line was 95% and 92% and 90%.

In the case of `N.N.[Cl][Pt][Cl]` [cisplatin (cis-Pt(N H3)2 Cl2), cisplatin (cis-dichlorodiamminplatin) (II), reference compound], in the data set with mice, the “DCL” value worked out at 3.5 µg/dL, the “Therapeutic ratio × 10^-7” value is reported as 7 × 10^-7 and the dCL/ daggl came out at 5. For the same compound, the “% of PC3 death in the mixture” value with PC3 line is 95% and 88% and 82%. For the same compound, the “daggl” value with cell cultures stood at 2 pg/dL.

Consider `O=[N+]([O-])[O-].O=[N+]([O-])[O-].[Cu+2]` [Cu(NO3)2], for which the “Therapeutic ratio × 10^-7” value in the data set on mice was 25 × 10^-7. Further, the “% of PC3 death in the mixture” value with PC3 line was 85% and 82% and 65%.

As for `O=C([O-])[O-].[Tl+].[Tl+]` [Tl2CO3], in the data set on mice, the “DCL” value was determined as 21 µg/dL, the “Therapeutic ratio × 10^-7” value is given as 13.1 × 10^-7 and the dCL/ daggl is reported as 2. The “% of PC3 death in the mixture” value in the data set with PC3 line was 95% and 85% and 80%. The “daggl” value in the data set on cell cultures came out at 12 pg/dL.

For `O=[N+]([O-])[O-].[Ag+]` [AgNO3], the “Therapeutic ratio × 10^-7” value in the data set with mice was 180 × 10^-7. Moreover, in the data set with PC3 line, the “% of PC3 death in the mixture” value is 80% and 75% and 65%.

Consider `O=S(=O)(O)[S-].O=S(=O)(O)[S-].[Au].[Na+].[Na+].[Na+]` [AuH2Na3O6S4, aurothiosulfate], for which the “Therapeutic ratio × 10^-7” value in the data set with mice is 50 × 10^-7. In addition, the “% of PC3 death in the mixture” value in the data set with PC3 line is 75% and 70% and 56%.

With `O=[N+]([O-])[O-].O=[N+]([O-])[O-].O=[N+]([O-])[O-].[Ga+3]` [Ga(NO3)3, gallium trinitrate], in the data set with mice, the “DCL” value amounted to 35 µg/dL, the “Therapeutic ratio × 10^-7” value is on record as 9.2 × 10^-7 and the dCL/ daggl worked out at 8. Besides, the “% of PC3 death in the mixture” value in the data set on PC3 line is 90% and 82% and 75%. Besides, in the data set with cell cultures, the “daggl” value was determined as 20 pg/dL.
